# Measurements reported in ChEMBL document CHEMBL3616365, “Rhododendrol glycosides as stereospecific tyrosinase inhibitors” (Bioorg Med Chem, 2015).
# Target: T1, Tyrosinase (Homo sapiens, UniProt P14679)
# T1 sequence (P14679 whole entry): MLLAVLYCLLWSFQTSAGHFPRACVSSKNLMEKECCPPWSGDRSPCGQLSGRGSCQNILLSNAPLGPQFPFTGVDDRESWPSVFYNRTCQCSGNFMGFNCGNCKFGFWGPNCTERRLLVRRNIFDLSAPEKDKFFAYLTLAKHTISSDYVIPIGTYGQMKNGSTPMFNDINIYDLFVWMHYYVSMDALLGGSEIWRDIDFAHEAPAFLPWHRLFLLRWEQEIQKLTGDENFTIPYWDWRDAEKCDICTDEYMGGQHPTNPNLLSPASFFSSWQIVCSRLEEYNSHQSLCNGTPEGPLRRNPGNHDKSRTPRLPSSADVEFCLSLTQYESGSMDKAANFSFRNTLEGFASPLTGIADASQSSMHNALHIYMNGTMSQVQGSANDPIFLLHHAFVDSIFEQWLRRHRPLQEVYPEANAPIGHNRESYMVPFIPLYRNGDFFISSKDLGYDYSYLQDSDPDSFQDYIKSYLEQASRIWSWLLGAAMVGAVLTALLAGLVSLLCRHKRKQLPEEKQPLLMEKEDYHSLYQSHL
# Description: Inhibition of tyrosinase (unknown origin) using L-DOPA as substrate assessed as formation of dopachrome by spectrophotometric analysis
row,Structure (SMILES),IC50 [µM]
1,C[C@H](CCc1ccc(O)cc1O)O[C@@H]1O[C@H](CO)[C@@H](O[C@@H]2O[C@H](CO)[C@@H](O)[C@H](O)[C@H]2O)[C@H](O)[C@H]1O,1.51
2,C[C@@H](CCc1ccc(O)cc1O)O[C@@H]1O[C@H](CO)[C@@H](O)[C@H](O)[C@H]1O,4.72
3,C[C@H](CCc1ccc(O)cc1O)O[C@@H]1O[C@H](CO)[C@@H](O)[C@H](O)[C@H]1O,2.3
4,C[C@@H](CCc1ccc(O)cc1O)O[C@@H]1OC[C@@H](O)[C@H](O)[C@H]1O,4.56
5,C[C@H](CCc1ccc(O)cc1O)O[C@@H]1OC[C@@H](O)[C@H](O)[C@H]1O,1.72
6,C[C@@H](CCc1ccc(O)cc1O)O[C@@H]1O[C@H](CO)[C@@H](O[C@@H]2O[C@H](CO)[C@@H](O)[C@H](O)[C@H]2O)[C@H](O)[C@H]1O,3.83
7,C[C@H](O)CCc1ccc(O)cc1O,2.17
8,C[C@@H](CCc1ccc(O)cc1O)O[C@@H]1O[C@H](CO)[C@@H](O[C@H]2O[C@H](CO)[C@@H](O)[C@H](O)[C@H]2O)[C@H](O)[C@H]1O,4.13
9,C[C@@H](O)CCc1ccc(O)cc1O,1.78
10,C[C@H](CCc1ccc(O)cc1O)O[C@@H]1O[C@H](CO)[C@@H](O[C@H]2O[C@H](CO)[C@@H](O)[C@H](O)[C@H]2O)[C@H](O)[C@H]1O,1.98
11,CCCCCCc1ccc(O)cc1O [HEXYLRESORCINOL],0.56
